15 compounds from PubChem BioAssay (NCI) can be followed below.

Common to all, as to test: NCI tumour cell line growth inhibition, 48 h
The subject of assay [1] is EKVX NSCLC.
Assay [2] relates to NCI-H226 lung.
Assay [3] has as its system OVCAR-8 ovarian.
In assay [4] the test system is CAKI-1 renal.
For assay [5], the system named is SF-268 CNS.
Assay [6] relates to SK-MEL-5 melanoma.
Assay [7] concerns HL-60(TB) leukemia.
Assay [8] relates to NCI-H522 lung.
For assay [9], the system named is OVCAR-5 ovarian.
Assay [10] concerns LOX IMVI melanoma.

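96-well plates; 48 h exposure; 5 concentrations. Endpoints by linear interpolation between flanking doses. Not reached: highest tested concentration assigned. Abbreviation: GI50, concentration required for 50% inhibition of growth. TGI: total growth inhibition.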

On to `CN(C)/N=N/c1nc2c(c(=O)n(C)c(=O)n2C)n1CC(O)CO` (stereo unspecified), for which the TGI in assay [1], in [2], in assay [3], in assay [4], in assay [5] and in assay [6] was greater than 100 µM throughout. For the same compound, the TGI in [7], in assay [8] and in assay [9] was greater than 100 µM throughout.
Regarding `CCN(CC)C(=S)SS(=O)(=O)c1cccc(N)c1`, the TGI in assay [1], in assay [2], in [3], in [4], in assay [5] and in assay [6] was greater than 100 µM throughout. In addition, the TGI in [10], in assay [8] and in assay [9] was greater than 100 µM throughout.
As for `CC(C)(C)n1c(=O)[nH]c(=O)n1C(C)(C)C`, the TGI in assay [1], in [2], in assay [3], in [4], in [6] and in assay [10] was greater than 100 µM in each case. The TGI in assay [7] and in assay [9] was greater than 100 µM throughout.
For the compound `N#Cc1cc2c(n(C3OC(CO)C(O)C(O)C3O)c1=S)CCCCCC2` (stereo unspecified), the TGI in [2], in assay [3], in assay [4], in [5], in assay [6] and in assay [10] was greater than 100 µM in each case. In addition, the TGI in assay [7], in assay [8] and in assay [9] was greater than 100 µM in each case.
Regarding `CCN=C1C=CC(=C(c2ccc(N(CC)CC)cc2)c2ccc(N(CC)CC)cc2)c2ccccc21`, the GI50 was 0.0378 µM in [1]; 0.064 µM in assay [2]; 0.0335 µM in assay [4]; 0.0363 µM in assay [6]; 0.294 µM in assay [9]. Moreover, the TGI amounted to 1.18 µM in assay [1]; 1.61 µM in assay [2]; 0.273 µM in [4]; 0.133 µM in assay [6]; 1.23 µM in assay [9].
Turning to `COc1cccc(N=N/C(=N\NC(=O)c2ccc(C)cc2)c2ccc(N(CCC#N)CCC#N)cc2C)c1`, the TGI in assay [1], in assay [2], in [3], in assay [4], in [5] and in assay [6] was greater than 100 µM each time. In addition, the TGI in assay [10] and in assay [9] was greater than 100 µM throughout.
On to `c1ccc(CN2CCC(Nc3ccccc3)(c3nnnn3Cc3ccccc3)CC2)cc1`, for which the TGI in [1] was greater than 100 µM; in [2], greater than 100 µM; in assay [3], greater than 100 µM; in [5], greater than 100 µM; in assay [6] it was 25.6 µM; in assay [10], 43.5 µM. Besides, the TGI is 25.9 µM in assay [7] and 76.1 µM in [9].
Take `C/C(=N\NC(=S)N(C)C)c1cccnn1`: the TGI in assay [1] is 10.4 µM; in [2], 4.83 µM; in [3] it was greater than 100 µM; in assay [6], greater than 20.7 µM; in assay [10] it was greater than 51.2 µM; in assay [7], greater than 100 µM. The TGI in [8] was greater than 100 µM; in [9], greater than 57.3 µM.
For `C=CCC1C(O[Si](C)(C)C(C)(C)C)C(CO[Si](C)(C)C(C)(C)C)OC1n1ccc(=O)[nH]c1=O` (stereo unspecified), the TGI in [1] is 2.79 µM; in assay [2], 3.02 µM; in [3] it was 3.41 µM; in [6], 2.91 µM; in assay [10], 2.25 µM; in assay [9], 2.57 µM.
On to `CC(C)C(C/C=C1\CC(CO)(COC(=O)C2CCCCC2)OC1=O)C(C)C` (stereo unspecified), for which the TGI is 41.2 µM in assay [1]; 38.3 µM in assay [2]; 35.8 µM in [3]; 43.8 µM in assay [4]; 33.5 µM in [5]; greater than 100 µM in assay [6]. The TGI in assay [10] amounted to 32.3 µM; in [8], 31.8 µM; in assay [9], 41.8 µM.
Turning to `CC1(C)CC(=O)C2(CC(CSc3ccccc3)C(CS(=O)(=O)c3ccccc3)C2)C(=O)C1` (stereo unspecified), the TGI in [1], in assay [2], in assay [3], in [4], in assay [5] and in assay [6] was greater than 100 µM throughout. Moreover, the TGI in assay [10], in assay [8] and in assay [9] was greater than 100 µM in each case.
In the case of `CCOC(=O)c1cc(C)nc2c1c(=O)n(-c1ccccc1)c(=O)n2CCCCN1CCN(c2ccccc2)CC1`, the TGI in assay [1], in assay [2], in [3], in assay [5], in [6] and in assay [10] was greater than 100 µM throughout. The results for the TGI in assay [7], in assay [8] and in [9] were 49.1 µM, greater than 100 µM and greater than 100 µM, respectively.
For the compound `Cc1nc(N)c(N2CCN(CN)CC2)c(=O)[nH]1`, the TGI in [1], in assay [2], in assay [3], in assay [5], in [10] and in assay [7] was greater than 100 µM throughout. Besides, the TGI in [8] and in [9] was greater than 100 µM throughout.
Turning to `NNC(=O)C1(NC(=O)c2ccccc2)C(c2ccccc2)C(c2ccccc2)=NN1c1ccccc1` (stereo unspecified), the TGI in assay [1] is greater than 100 µM; in assay [2], greater than 100 µM; in [3], greater than 100 µM; in assay [4] it was 92 µM; in assay [5], greater than 100 µM; in assay [6], greater than 100 µM. The TGI in [10], in assay [8] and in [9] was greater than 100 µM throughout.
Turning to `Nc1nc(Cl)cc(NC23CC4CC(CC(C4)C2)C3)n1`, the TGI in assay [1], in [2], in assay [3], in assay [4], in assay [5] and in assay [8] was greater than 100 µM in each case. This compound also registered a TGI in [9] greater than 100 µM.
